These are literature values, as cited in patent US20240180903A1, “INJECTABLE PHARMACEUTICAL COMPOSITION, PREPARATION METHOD THEREFOR AND USE THEREOF” (ZHEJIANG CUIZE PHARMACEUTICAL TECHNOLOGY CO., LTD., priority 2022, published 2024).

One data set relates to HIV. The conditions noted are these: read-out: IC50 against HIV.
The next data set concerns HIV RNA in plasma. The following applies: oral 5 mg/d or 30 mg/d, 10 d after a single dose.

As a reminder, the IC50 is the concentration that gives 50% inhibition. With `C[C@H]1CO[C@@H]2Cn3cc(C(=O)NCc4ccc(F)cc4F)c(=O)c(O)c3C(=O)N12` [Cabotegravir], the IC50 in the data set on HIV is 0.22 nM. In addition, the “HIV RNA in plasma” value in the data set on HIV RNA in plasma was 2.2-2.3 copies/mL.
